Target: USP30 (Homo sapiens (Human), UniProt Q70CQ3)
Experiment: USP30 biochemical IC50 assay (fluorescence polarisation)
Conditions: enzyme and compound incubated 30 min at room temp; TAMRA labelled peptide-ubiquitin substrate 50 nM; read after 2 hr incubation; read-out: IC50 range
Description: USP30 Biochemical IC50 Assay
Dilution plates were prepared at 21 times the final concentration ([…] for a final concentration of 100 μM) in 50% DMSO in a 96-well polypropylene V-bottom plate (Greiner #651201). A typical 8-point dilution series to be 100, 30, 10, 3, 1, 0.3, 0.1, […].
Reactions were performed in duplicate in black 384 well plates (small volume, Greiner 784076) in a final reaction volume of 21 μl. Either 1 μl of 50% DMSO or diluted compound was added to the plate. USP30 was diluted in reaction buffer (40 mM Tris, pH 7.5, 0.005% Tween 20, 0.5 mg/ml BSA, 5 mM beta-mercaptoethanol) to the equivalent of 0.05 µl/well and 10 μl of diluted USP30 was added to the compound. Enzyme and compound were incubated for 30 min at room temp. Reactions were initiated by the addition of 50 nM of TAMRA labelled peptide linked to ubiquitin via an iso-peptide bond as fluorescence polarisation substrate. Reactions were read immediately after addition of substrate and following a 2 hr incubation at room temperature. Readings were performed on a Pherastar Plus (BMG Labtech). λ Excitation 540 nm; λ Emission 590 nm.

Chain of USP30 (Q70CQ3 57-517): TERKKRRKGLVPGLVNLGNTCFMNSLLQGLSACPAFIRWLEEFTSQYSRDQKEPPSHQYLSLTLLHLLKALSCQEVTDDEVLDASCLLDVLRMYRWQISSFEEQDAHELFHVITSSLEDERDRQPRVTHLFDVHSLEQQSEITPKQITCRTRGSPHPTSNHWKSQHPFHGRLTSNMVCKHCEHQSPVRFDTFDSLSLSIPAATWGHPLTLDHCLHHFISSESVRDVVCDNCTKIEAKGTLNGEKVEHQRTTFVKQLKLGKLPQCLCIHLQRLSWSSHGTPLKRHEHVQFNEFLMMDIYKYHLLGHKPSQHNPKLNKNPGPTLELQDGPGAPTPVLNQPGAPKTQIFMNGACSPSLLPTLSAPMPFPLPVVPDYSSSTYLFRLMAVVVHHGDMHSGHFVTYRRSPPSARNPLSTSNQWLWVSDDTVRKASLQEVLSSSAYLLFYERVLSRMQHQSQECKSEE

An IC50 of 100 to 1000 nM was found for `C[C@H]1CN(C#N)C[C@@H]1C(=O)N1CCc2cc(-c3ccccc3)cnc21` (racemic) [Example 52, Trans-3-methyl-4-(5-phenyl-2,3-dihydro-1H-pyrrolo[2,3-b]pyridine-1-carbonyl)-pyrrolidine-1-carbonitrile] in this work.

An IC50 of 100 to 1000 nM was found for `N#CN1CCC(F)(C(=O)N2CCc3cc(-c4cccnc4)ccc32)C1` (racemic) [Example 57, 3-Fluoro-3-(5-(pyridin-3-yl)indoline-1-carbonyl)pyrrolidine-1-carbonitrile] in this work.

An IC50 of 100 to 1000 nM was found for `C[C@@H]1CN(C#N)C[C@H]1C(=O)N1CCc2cc(-c3ccccc3Cl)ccc21` (relative stereo) [Example 13, (trans)-3-(5-(2-Chlorophenyl)indoline-1-carbonyl)-4-methylpyrrolidine-1-carbonitrile] in this work.

An IC50 of 100 to 1000 nM was found for `CN(C(=O)[C@H]1CN(C#N)C[C@@H]1CO)c1ncc(-c2ccccc2)s1` (relative stereo) [Example 34, (trans)-1-Cyano-4-(hydroxymethyl)-N-methyl-N-(5-phenylthiazol-2-yl)pyrrolidine-3-carboxamide] in this work.

An IC50 of 1000 to 10000 nM was found for `N#CN1C[C@H]2CN(c3ncc(-c4ccccc4)s3)C(=O)[C@H]2C1` (relative stereo) [Example 48, (cis)-4-Oxo-5-(5-phenylthiazol-2-yl)hexahydropyrrolo[3,4-c]pyrrole-2(1H)-carbonitrile] in this work.

An IC50 of 1000 to 10000 nM was found for `CN(C(=O)C1CCN(C#N)C1)c1ccc(-c2ccccc2)cn1` (stereo in doubt) [Example 31, (S)-1-Cyano-N-methyl-N-(5-phenylpyridin-2-yl)pyrrolidine-3-carboxamide] in this work.

An IC50 of 1000 to 10000 nM was found for `CCN(C(=O)C1CCN(C#N)C1)c1nc(-c2ccccc2)cs1` (stereo not drawn) [Example 1, 1-Cyano-N-ethyl-N-(4-phenylthiazol-2-yl)pyrrolidine-3-carboxamide] in this work.

An IC50 of 1000 to 10000 nM was found for `CCN(C(=O)C1CCN(C#N)C1)c1ncc(-c2ccccc2)s1` (stereo not drawn) [Example 2, 1-cyano-N-ethyl-N-(5-phenylthiazol-2-yl)pyrrolidine-3-carboxamide] in this work.

An IC50 of 100 to 1000 nM was found for `CN(C(=O)[C@H]1CCN(C#N)C1)c1ncc(-c2ccccc2)s1` [Example 3, (S)-1-Cyano-N-methyl-N-(5-phenylthiazol-2-yl)pyrrolidine-3-carboxamide] in this work.

An IC50 of 1000 to 10000 nM was found for `CN(C(=O)[C@H]1CCN(C#N)C1)c1cc(-c2ccccc2)ccn1` [Example 4, (S)-1-Cyano-N-methyl-N-(4-phenylpyridin-2-yl)pyrrolidine-3-carboxamide] in this work.

An IC50 of 1000 to 10000 nM was found for `CN(C(=O)[C@H]1CCN(C#N)C1)c1cccc(-c2ccccc2)n1` [Example 5, (S)-1-Cyano-N-methyl-N-(6-phenylpyridin-2-yl)pyrrolidine-3-carboxamide] in this work.

An IC50 of 1000 to 10000 nM was found for `CC(C)N(C(=O)C1CCN(C#N)C1)c1nc(-c2ccccc2)cs1` (stereo not drawn) [Example 7, 1-Cyano-N-isopropyl-N-(4-phenylthiazol-2-yl)pyrrolidine-3-carboxamide] in this work.

An IC50 of 100 to 1000 nM was found for `CN(C(=O)C1(F)CCN(C#N)C1)c1ncc(-c2ccccc2)s1` (stereo not drawn) [Example 8, 1-Cyano-3-fluoro-N-methyl-N-(5-phenylthiazol-2-yl)pyrrolidine-3-carboxamide] in this work.

An IC50 of 100 to 1000 nM was found for `CN(C(=O)C1(F)CCN(C#N)C1)c1nc2ccccc2s1` (stereo not drawn) [Example 9, N-(Benzo[d]thiazol-2-yl)-1-cyano-3-fluoro-N-methylpyrrolidine-3-carboxamide] in this work.

An IC50 of 100 to 1000 nM was found for `N#CN1CC[C@H](C(=O)N2CCc3c(-c4ccccc4)cccc32)C1` [Example 10, (S)-3-(4-Phenylindoline-1-carbonyl)pyrrolidine-1-carbonitrile] in this work.

An IC50 of 1000 to 10000 nM was found for `N#CN1CC[C@@H](C(=O)N2CCc3ccc(-c4ccccc4)cc32)C1` [Example 11, (R)-3-(6-Phenylindoline-1-carbonyl)pyrrolidine-1-carbonitrile] in this work.

An IC50 of 100 to 1000 nM was found for `N#CN1CC[C@H](C(=O)N2CCc3cc(-c4cccc(Cl)c4)ccc32)C1` [Example 12, (S)-3-(5-(3-Chlorophenyl)indoline-1-carbonyl)pyrrolidine-1-carbonitrile] in this work.

An IC50 of 100 to 1000 nM was found for `N#CN1CCC(F)(C(=O)N2CCc3cc(-c4ccccc4)ccc32)C1` (stereo not drawn) [Example 14, 3-Fluoro-3-(5-phenylindoline-1-carbonyl)pyrrolidine-1-carbonitrile] in this work.

An IC50 of 100 to 1000 nM was found for `N#CN1CCC(F)(C(=O)N2CCc3ccc(-c4ccccc4)cc32)C1` (stereo not drawn) [Example 15, 3-Fluoro-3-(6-phenylindoline-1-carbonyl)pyrrolidine-1-carbonitrile] in this work.

An IC50 of 100 to 1000 nM was found for `N#CN1CCC(F)(C(=O)N2CCc3ccc(-c4ccccc4)nc32)C1` (stereo not drawn) [Example 16, 3-Fluoro-3-(6-phenyl-2,3-dihydro-1-H-pyrrolo[2,3-b]pyridine-1-carbonyl)pyrrolidine-1-carbonitrile] in this work.

An IC50 of 1000 to 10000 nM was found for `N#CN1CC[C@@H](C(=O)N2CCc3cc(-c4ccccc4)ccc32)C1` [Example 17, (R)-3-(5-Phenylindoline-1-carbonyl)pyrrolidine-1-carbonitrile] in this work.

An IC50 of 100 to 1000 nM was found for `N#CN1CC[C@H](C(=O)N2CCc3cc(-c4ccccc4)ccc32)C1` [Example 18, (S)-3-(5-Phenylindoline-1-carbonyl)pyrrolidine-1-carbonitrile] in this work.

An IC50 of 100 to 1000 nM was found for `C[C@@H]1CN(C#N)C[C@H]1C(=O)N1CCc2cc(-c3ccccc3)ccc21` [Example 19, (3S,4S)-3-Methyl-4-(5-phenylindoline-1-carbonyl)pyrrolidine-1-carbonitrile] in this work.

An IC50 of 1000 to 10000 nM was found for `C[C@H]1CN(C#N)C[C@@H]1C(=O)N1CCc2cc(-c3ccccc3)ccc21` [Example 20, (3R,4R)-3-Methyl-4-(5-phenylindoline-1-carbonyl)pyrrolidine-1-carbonitrile] in this work.

An IC50 of 1000 to 10000 nM was found for `N#CN1CC[C@H](C(=O)N2CCc3cc(-c4ccccc4)cnc32)C1` [Example 21, (S)-3-(5-Phenyl-2,3-dihydro-1H-pyrrolo[2,3-b]pyridine-1-carbonyl)pyrrolidine-1-carbonitrile] in this work.

An IC50 of 100 to 1000 nM was found for `N#CN1CCC(F)(C(=O)N2CCc3cc(-c4ccccc4)cnc32)C1` (stereo not drawn) [Example 22, 3-Fluoro-3-(5-phenyl-2,3-dihydro-1H-pyrrolo[2,3-b]pyridine-1-carbonyl)pyrrolidine-1-carbonitrile] in this work.

An IC50 of 100 to 1000 nM was found for `N#CN1CC[C@H](C(=O)N2CCCc3cc(-c4ccccc4)ccc32)C1` [Example 23, (S)-3-(6-Phenyl-1,2,3,4-tetrahydroquinoline-1-carbonyl)pyrrolidine-1-carbonitrile] in this work.

An IC50 of 100 to 1000 nM was found for `N#CN1CC[C@@H](C(=O)N2CCOc3cc(-c4ccccc4)ccc32)C1` [Example 24, (R)-3-(7-Phenyl-3,4-dihydro-2H-benzo[b][1,4]oxazine-4-carbonyl)pyrrolidine-1-carbonitrile] in this work.

An IC50 of 100 to 1000 nM was found for `N#CN1CC[C@@H](C(=O)N2CCOc3ccc(-c4ccccc4)cc32)C1` [Example 25, (R)-3-(6-Phenyl-3,4-dihydro-2H-benzo[b][1,4]oxazine-4-carbonyl)pyrrolidine-1-carbonitrile] in this work.

An IC50 of 1000 to 10000 nM was found for `N#CN1CC[C@@H](C(=O)N2CCOc3c(-c4ccccc4)cccc32)C1` [Example 26, (R)-3-(8-Phenyl-3,4-dihydro-2H-benzo[b][1,4]oxazine-4-carbonyl)pyrrolidine-1-carbonitrile] in this work.

An IC50 of 100 to 1000 nM was found for `N#CN1CC[C@H](C(=O)N2CCc3c(-c4ccccc4)ccnc32)C1` [Example 27, (S)-3-(4-Phenyl-2,3-dihydro-1H-pyrrolo[2,3-b]pyridine-1-carbonyl)pyrrolidine-1-carbonitrile] in this work.

An IC50 of 1000 to 10000 nM was found for `N#CN1CC[C@H](C(=O)N2CCc3c(-c4cccc(Cl)c4)ccnc32)C1` [Example 28, (S)-3-(4-(3-Chlorophenyl)-2,3-dihydro-1H-pyrrolo[2,3-b]pyridine-1-carbonyl)pyrrolidine-1-carbonitrile] in this work.

An IC50 of 1000 to 10000 nM was found for `Cn1cc(-c2cc3c(cc2C#N)N(C(=O)[C@H]2CCN(C#N)C2)CC3)cn1` [Example 29, (S)-1-(1-Cyanopyrrolidine-3-carbonyl)-5-(1-methyl-1H-pyrazol-4-yl)indoline-6-carbonitrile] in this work.

An IC50 of 1000 to 10000 nM was found for `N#CN1CC[C@@H](C(=O)N2CCOc3cc(-n4cccn4)ccc32)C1` [Example 30, (R)-3-(7-(1H-Pyrazol-1-yl)-3,4-dihydro-2H-benzo[b][1,4]oxazine-4-carbonyl)-pyrrolidine-1-carbonitrile] in this work.

An IC50 of 1000 to 10000 nM was found for `CN(C(=O)[C@@H]1CCN(C#N)C1)c1cc(-c2ccccc2)cnn1` [Example 32, (R)-1-Cyano-N-methyl-N-(5-phenylpyridazin-3-yl)pyrrolidine-3-carboxamide] in this work.

An IC50 of 100 to 1000 nM was found for `CN(C(=O)C1(F)CCN(C#N)C1)c1cc(-c2ccccc2)on1` (stereo not drawn) [Example 33, 1-Cyano-3-fluoro-N-methyl-N-(5-phenylisoxazol-3-yl)pyrrolidine-3-carboxamide] in this work.

An IC50 of 1000 to 10000 nM was found for `N#CN1CCC(F)(C(=O)N2CCc3cc(-c4ccnn4Cc4ccccc4)ccc32)C1` (stereo not drawn) [Example 35, 3-(5-(1-Benzyl-1H-pyrazol-5-yl)indoline-1-carbonyl)-3-fluoropyrrolidine-1-carbonitrile] in this work.

An IC50 of 1000 to 10000 nM was found for `Cn1nccc1-c1ccc2c(c1)CCN2C(=O)C1(F)CCN(C#N)C1` (stereo not drawn) [Example 36, 3-Fluoro-3-(5-(1-methyl-1H-pyrazol-5-yl)indoline-1-carbonyl)pyrrolidine-1-carbonitrile] in this work.

An IC50 of 100 to 1000 nM was found for `CN1CCN(c2ccc(-c3ccc4c(c3)CCN4C(=O)C3(F)CCN(C#N)C3)cc2)CC1` (stereo not drawn) [Example 37, 3-Fluoro-3-(5-(4-(4-methylpiperazin-1-yl)phenyl)indoline-1-carbonyl)pyrrolidine-1-carbonitrile] in this work.

Reference: patent US10640498B2, “Compounds” (MISSION THERAPEUTICS LIMITED, priority 2016, dated 2020)
